These results are taken from US8367658B2, “Pyrazin-2-yl-pyridin-2-yl-amine and pyrazin-2-yl-pyrimidin-4-yl-amine compounds and their use” (Cancer Research Technology Limited, priority 2007, dated 2013).

Several values for one entry are separate records, joined by “and”; a condition that tells them apart may be missing. Equal entries are not always repeated. Bounds are passed on as bounds.

The test has as its target T1, CHK1 (Homo sapiens, UniProt O14757).
T1 sequence (O14757 1-476): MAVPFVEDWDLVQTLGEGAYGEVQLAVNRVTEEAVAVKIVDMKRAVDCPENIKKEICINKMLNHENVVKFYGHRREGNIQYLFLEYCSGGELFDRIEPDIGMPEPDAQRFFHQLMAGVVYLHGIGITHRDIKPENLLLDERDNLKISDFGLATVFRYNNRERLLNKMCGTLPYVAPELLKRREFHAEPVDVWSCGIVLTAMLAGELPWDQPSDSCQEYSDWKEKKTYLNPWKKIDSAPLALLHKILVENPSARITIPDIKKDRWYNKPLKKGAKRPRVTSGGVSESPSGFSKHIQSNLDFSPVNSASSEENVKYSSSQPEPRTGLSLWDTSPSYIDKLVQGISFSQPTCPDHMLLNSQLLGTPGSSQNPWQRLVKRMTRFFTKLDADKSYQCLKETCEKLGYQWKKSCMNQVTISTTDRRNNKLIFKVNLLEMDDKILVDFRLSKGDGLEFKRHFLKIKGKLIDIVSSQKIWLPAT
In words: CHK1 kinase function inhibition assay (DELFIA, phosphorylation of a CDC25C peptide). To be noted: CHK1 1 nM, ATP 30 μM, 30 minutes at room temperature. In kind it is biochemical. The gist of the method:
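Phosphorylation of a CDC25C peptide detected by DELFIA with a phospho-specific antibody. Kinase reaction ran 30 min at room temperature, was stopped with EDTA buffer, then captured on neutravidin-coated plates for 1 h before time-resolved fluorescence read-out with enhancement solution.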
One may read the IC50 as the concentration needed to halve the response being measured. Consider `N#Cc1cnc(Nc2cc(N3CCOC(CN)C3)ncn2)cn1` (stereo not shown) [Compound Z-014, 5-(6-(2-(Aminomethyl)morpholino)pyrimidin-4-ylamino)pyrazine-2-carbonitrile], for which the IC50 was in the range of 1000 to 10000 nM. Molecule `N#Cc1cnc(Nc2cc(OCC3CCNCC3)c(N)cn2)cn1` [Compound Y-038, 5-(5-Amino-4-(piperidin-4-ylmethoxy)pyridin-2-ylamino)pyrazine-2-carbonitrile] registered an IC50 of 1000 to 10000 nM. In the case of `CN1C2CCC1CC(Nc1cc(Nc3cnc(C#N)cn3)ncc1N)C2` (stereo not shown) [Compound Y-006, 5-(5-Amino-4-(8-methyl-8-aza-bicyclo[3.2.1]octan-3-ylamino)-pyridin-2-ylamino)pyrazine-2-carbonitrile], the IC50 is 1000 to 10000 nM. Then `CCOC(=O)c1ccn(-c2cnc(Nc3cnc(C#N)cn3)cc2NCC2CCCNC2)c1` (stereo not shown) [Compound Y-064, Ethyl 1-(6-(5-cyanopyrazin-2-ylamino)-4-(piperidin-3-ylmethylamino)pyridin-3-yl)-1H-pyrrole-3-carboxylate], with no more than 100 nM; and `COC(=O)c1cnc(Nc2cnc(C#N)cn2)cc1NC1CC2CCCC(C1)N2C` (stereo not shown) [Compound Y-071, Methyl 6-(5-cyanopyrazin-2-ylamino)-4-(9-methyl-9-azabicyclo[3.3.1]-nonan-3-ylamino)nicotinate], with 100 to 1000 nM; and `N#Cc1cnc(Nc2cc(N[C@H]3CCNC3)ncn2)cn1` [Compound Z-024, (S)-5-(6-(Pyrrolidin-3-ylamino)pyrimidin-4-ylamino)pyrazine-2-carbonitrile], with 1000 to 10000 nM. Then `COC/C=C/c1cnc(Nc2cnc(C#N)cn2)cc1NCC1CCNCC1` [Compound Y-139, (E)-5-(5-(3-Methoxyprop-1-enyl)-4-(piperidin-4-ylmethylamino)pyridin-2-ylamino)pyrazine-2-carbonitrile], with no more than 100 nM; and `COc1nc(Nc2cc(NCC3CCNCC3)ncn2)cnc1C#N` [Compound Z-046, 3-Methoxy-5-(6-(piperidin-4-ylmethylamino)pyrimidin-4-ylamino)-pyrazine-2-carbonitrile], with 1000 to 10000 nM; and `CC1(CNc2cc(Nc3cnc(C#N)cn3)ncn2)CCNCC1` [Compound Z-028, 5-(6-((4-Methylpiperidin-4-yl)methylamino)pyrimidin-4-ylamino)pyrazine-2-carbonitrile], with 1000 to 10000 nM. In the case of `COC(=O)c1cnc(Nc2cnc(C#N)cn2)cc1NCC1(C)COC1` [Compound Y-031, Methyl 6-(5-cyanopyrazin-2-ylamino)-4-((3-methyloxetan-3-yl)methylamino)nicotinate] it was ≤ 1000 nM and 100 to 1000 nM. As for `CN(C)CC(=O)Nc1cnc(Nc2cnc(C#N)cn2)cc1NCC1CCNCC1` [Compound Y-010, N-(6-(5-Cyanopyrazin-2-ylamino)-4-(piperidin-4-ylmethylamino)pyridin-3-yl)-2-(dimethylamino)acetamide], the IC50 was ≤ 1000 nM and 100 to 1000 nM. In the case of `N#Cc1cnc(Nc2cc(NCC3CCNCC3)c(CCCCO)cn2)cn1` [Compound Y-142, 5-(5-(4-hydroxybutyl)-4-(piperidin-4-ylmethylamino)pyridin-2-ylamino)pyrazine-2-carbonitrile] it was 100 to 1000 nM; in that of `COC(=O)c1cnc(Nc2cnc(C#N)cn2)cc1NCC[C@H]1CNCCO1` [Compound Y-082, (S)-Methyl 6-(5-cyanopyrazin-2-ylamino)-4-(2-(morpholin-2-yl)ethylamino)nicotinate], no more than 100 nM.

Turning to `N#Cc1cnc(Nc2cc(NCCC[C@@H](N)C(=O)Nc3ccccc3)ncn2)cn1` [Compound Z-025, (R)-2-Amino-5-(6-(5-cyanopyrazin-2-ylamino)pyrimidin-4-ylamino)-N-phenylpentanamide], the half-inhibitory concentration (IC50) was ≤ 1000 nM and 100 to 1000 nM. In the case of `COC(=O)c1cnc(Nc2cnc(OC)cn2)cc1NC1CC2CCC(C1)N2C` (stereo not shown) [Compound Y-037, Methyl 6-(5-methoxypyrazin-2-ylamino)-4-(8-methyl-8-azabicyclo[3.2.1]octan-3-ylamino)nicotinate] it was no more than 100 nM. Then `CS(=O)(=O)c1ccc(-c2cnc(Nc3cnc(C#N)cn3)cc2NCC2CCNCC2)cc1` [Compound Y-130, 5-(5-(4-(methylsulfonyl)phenyl)-4-(piperidin-4-ylmethylamino)pyridin-2-ylamino)pyrazine-2-carbonitrile], with no more than 100 nM. In the case of `N#Cc1cnc(Nc2cc(NCC3CCNCC3)c(C(=O)Nc3cccc(N4CCOCC4)c3)cn2)cn1` [Compound Y-099, 6-(5-Cyanopyrazin-2-ylamino)-N-(3-morpholinophenyl)-4-(piperidin-4-ylmethylamino)nicotinamide] it was no more than 100 nM; in that of `N#Cc1cnc(Nc2cc(NCC3CCNCC3)c(C(=O)Nc3ccccc3F)cn2)cn1` [Compound Y-093, 6-(5-Cyanopyrazin-2-ylamino)-N-(2-fluorophenyl)-4-(piperidin-4-ylmethylamino)nicotinamide], 100 to 1000 nM; in that of `CN1CCC(Nc2cc(Nc3cnc(C#N)cn3)ncc2Cl)CC1` [Compound Y-108, 5-(5-Chloro-4-(1-methylpiperidin-4-ylamino)pyridin-2-ylamino)pyrazine-2-carbonitrile], no more than 100 nM. Consider `N#Cc1cnc(Nc2cc(NCCC[C@H](N)C(=O)Nc3ccccc3)ncn2)cn1` [Compound Z-010, (S)-2-Amino-5-(6-(5-cyanopyrazin-2-ylamino)pyrimidin-4-ylamino)-N-phenylpentanamide], for which the IC50 is ≤ 1000 nM and 100 to 1000 nM. In the case of `CN(C)CCNc1cc(Nc2cnc(C#N)cn2)ncc1N` [Compound Y-004, 5-(5-Amino-4-(2-(dimethylamino)ethylamino)pyridin-2-ylamino)pyrazine-2-carbonitrile] it was 1000 to 10000 nM; in that of `N#Cc1cnc(Nc2cc(NCC3CCCNC3)c(-n3ccc(CO)c3)cn2)cn1` (stereo not shown) [Compound Y-063, 5-(5-(3-(Hydroxymethyl)-1H-pyrrol-1-yl)-4-(piperidin-3-ylmethylamino)pyridin-2-ylamino)pyrazine-2-carbonitrile], no more than 100 nM; in that of `COC(=O)c1cnc(Nc2cnc(C#N)cn2)cc1N[C@H]1CC2CC[C@H](C1)N2C(=O)OC(C)(C)C` (stereo in doubt) [Compound Y-074, (1R,5R)-tert-Butyl 3-(2-(5-cyanopyrazin-2-ylamino)-5-(methoxycarbonyl)pyridin-4-ylamino)-8-azabicyclo[3.2.1]octane-8-carboxylate], 1000 to 10000 nM.

The molecule `N#Cc1cnc(Nc2cc(NCC3CCCNC3)c(NC(=O)CCC3CCNCC3)cn2)cn1` (stereo not shown) [Compound Y-053, N-(6-(5-Cyanopyrazin-2-ylamino)-4-(piperidin-3-ylmethylamino)pyridin-3-yl)-3-(piperidin-4-yl)propanamide] registered an IC50 of no more than 100 nM. Then `CN(C)CC(=O)Nc1cnc(Nc2cnc(C#N)cn2)cc1N[C@H]1CCCNC1` [Compound Y-046, (S)—N-(6-(5-Cyanopyrazin-2-ylamino)-4-(piperidin-3-ylamino)pyridin-3-yl)-2-(dimethylamino)acetamide], with 1000 to 10000 nM; and `N#Cc1cnc(Nc2cc(OCC3CCOCC3)c(NC(=O)CCC3CCNCC3)cn2)cn1` [Compound Y-069, N-(6-(5-Cyanopyrazin-2-ylamino)-4-((tetrahydro-2H-pyran-4-yl)methoxy)pyridin-3-yl)-3-(piperidin-4-yl)propanamide], with 1000 to 10000 nM; and `N#Cc1cnc(Nc2cc(NCCC(N)c3ccccc3)c(N)cn2)cn1` (stereo not shown) [Compound Y-050, 5-(5-Amino-4-(3-amino-3-phenylpropylamino)pyridin-2-ylamino)pyrazine-2-carbonitrile], with 1000 to 10000 nM.

Consider `COC(=O)c1cnc(Nc2cnc(C#N)cn2)cc1NC1CCNCC1` [Compound Y-078, Methyl 6-(5-cyanopyrazin-2-ylamino)-4-(piperidin-4-ylamino)nicotinate], for which the IC50 was no more than 100 nM.

Regarding `N#Cc1cnc(Nc2cc(NCCCN)c(N)cn2)cn1` [Compound Y-042, 5-(5-Amino-4-(3-aminopropylamino)pyridin-2-ylamino)pyrazine-2-carbonitrile], the IC50 was no more than 100 nM. In the case of `Cc1ncsc1CCC(=O)Nc1cnc(Nc2cnc(C#N)cn2)cc1NCC1CCCNC1` (stereo not shown) [Compound Y-054, N-(6-(5-Cyanopyrazin-2-ylamino)-4-(piperidin-3-ylmethylamino)pyridin-3-yl)-3-(4-methylthiazol-5-yl)propanamide] it was 1000 to 10000 nM. Then `N#Cc1cnc(Nc2cc(NCC3CCCNC3)c(-n3ccc(CN4CCOCC4)c3)cn2)cn1` (stereo not shown) [Compound Y-062, 5-(5-(3-(Morpholinomethyl)-1H-pyrrol-1-yl)-4-(piperidin-3-ylmethylamino)pyridin-2-ylamino)pyrazine-2-carbonitrile], with no more than 100 nM.

On to `N#Cc1cnc(Nc2cc(N[C@@H]3CCCNC3)c(-n3cccc3)cn2)cn1` [Compound Y-057, (R)-5-(4-(Piperidin-3-ylamino)-5-(1H-pyrrol-1-yl)pyridin-2-ylamino)pyrazine-2-carbonitrile], for which the IC50 was 100 to 1000 nM. Then `N#Cc1cnc(Nc2cc(NCC3CCCCN3)c(N)cn2)cn1` (stereo not shown) [Compound Y-051, 5-(5-Amino-4-(piperidin-2-ylmethylamino)pyridin-2-ylamino)pyrazine-2-carbonitrile], with 1000 to 10000 nM; and `CCNC(=O)c1cnc(Nc2cnc(C#N)cn2)cc1NC1CCN(C)CC1` [Compound Y-085, 6-(5-Cyanopyrazin-2-ylamino)-N-ethyl-4-(1-methylpiperidin-4-ylamino)nicotinamide], with no more than 100 nM.
